Where two headings read alike, the source gives them in different places. One block for each compound: values may come before it.
Key:
LmPTR1 [1] = molecular target: T1, LmPTR1 (Leishmania major, UniProt Q01782); design: method as in PMID 29211037; settings: from previous study; read-out: IC50 LmPTR1; cited from earlier work
T1 construct: His6 (N); made in house; host or cells: E. coli BL21 (DE3), vector pET 15b::LmPTR1His (strain from the group of M. Paola Costi, Modena)
T1 sequence (Q01782 1-288): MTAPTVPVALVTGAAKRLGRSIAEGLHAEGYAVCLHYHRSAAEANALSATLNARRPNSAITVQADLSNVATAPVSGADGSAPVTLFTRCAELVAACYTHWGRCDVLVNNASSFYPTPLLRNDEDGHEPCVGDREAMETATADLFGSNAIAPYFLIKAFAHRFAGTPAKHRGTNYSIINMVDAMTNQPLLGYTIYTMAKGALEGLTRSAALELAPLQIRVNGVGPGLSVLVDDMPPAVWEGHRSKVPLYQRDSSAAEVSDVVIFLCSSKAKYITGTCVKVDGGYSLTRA

hDHFR = molecular target: T2, hDHFR (Homo sapiens, UniProt P00374); assay: Spectrophotometric enzyme inhibition assay, recombinant hDHFR (selectivity); assay type: biochemical; settings: for inhibition at 50 µM: set compound concentration of 50 μM, read-out: relative inhibition of hDHFR
T2 construct: His; host or cells: E. coli BL21 (DE3), vector pET 15b::hDHFRHis
T2 sequence (P00374 1-187): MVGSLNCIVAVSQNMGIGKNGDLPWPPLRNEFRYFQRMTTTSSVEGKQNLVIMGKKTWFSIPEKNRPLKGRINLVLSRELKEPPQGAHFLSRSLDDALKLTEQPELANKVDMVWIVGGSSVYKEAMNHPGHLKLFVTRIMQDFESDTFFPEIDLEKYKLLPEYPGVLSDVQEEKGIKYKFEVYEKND
Protocol: For 15 compounds, there was enough substance available to be tested in selectivity studies against hDHFR.
The used hDHFR concentration was 0.64 mg/mL, with a specific activity of 0.62 U/mg. All measurements were carried out using the saturating concentrations for dihydrofolate (100 μM) and NADPH (50 μM) in Buffer C (50 mM Tris/HCl (pH 7.6), 250 mM NaCl, 10 mM BME). The saturating conditions for hDHFR were determined using the diagrams depicted in Figure S20 in the Supplementary Materials.
(§1) The inhibitory effect of the selected natural products was investigated by testing the DMSO solution of each compound at a constant concentration of 100 μM for TbPTR1 and 50 μM for LmPTR1, TbDHFR, and LmDHFR, as well as hDHFR. The concentrations of the cofactor and substrates were set at the previously determined saturating conditions (Section 4.2.5). Each test compound was incubated for 20 min with the respective enzyme and NADPH to ensure a sufficient interaction time before the reaction was induced by the addition of the substrate. The enzymatic activity was determined in duplicates and correlated with a reference that contained just DMSO, instead of an inhibitor. The enzymatic activity of the reference was normalized to 100%.
(§2) The half-maximal inhibitory concentration (IC50) of the natural products was determined in triplicate, using at least five different inhibitor concentrations against a reference containing no inhibitor. The enzymatic activity was documented and analyzed and the IC50 value was determined by nonlinear regression using GraphPad Prism 9 (GraphPad Software Inc., La Jolla, CA, USA).

TbPTR1 = molecular target: T3, TbPTR1 (Trypanosoma brucei brucei, UniProt O76290); assay: Spectrophotometric enzyme inhibition assay, recombinant TbPTR1; assay type: biochemical; settings: for EC50: read-out: EC50 TbPTR1 (footnote a)
T3 construct: His6 (N); made in house; host or cells: E. coli BL21 (DE3), vector pET 15b::TbPTR1His (strain from the group of M. Paola Costi, Modena)
T3 sequence (O76290 1-268): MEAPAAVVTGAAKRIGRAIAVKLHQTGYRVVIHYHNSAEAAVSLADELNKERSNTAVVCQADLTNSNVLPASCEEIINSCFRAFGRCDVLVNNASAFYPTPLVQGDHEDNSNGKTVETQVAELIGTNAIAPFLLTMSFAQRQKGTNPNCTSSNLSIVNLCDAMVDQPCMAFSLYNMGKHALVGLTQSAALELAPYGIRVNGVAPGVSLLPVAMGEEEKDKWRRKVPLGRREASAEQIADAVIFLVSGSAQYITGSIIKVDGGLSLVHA
Protocol: (§3) Based on the in vitro assays against TbPTR1 and LmPTR1 performed in the previous works of our group, as well as the in silico results obtained from the current study, a total of 47 natural products were tested against the target enzymes. […] The concentration-effect curves for the IC50 and EC50 values that were obtained in the present study are depicted in Supplementary Materials Figures S21–S42.
(§4) The used TbPTR1 concentration was 3.23 mg/mL, with a specific activity of 0.03 U/mg. The measurements were carried out using the enzyme’s individual saturating concentrations for folic acid (8 μM) and NADPH (150 μM) in Buffer A (50 mM Tris/HCl (pH 7.6), 250 mM NaCl). For LmPTR1, the protein concentration was 5.02 mg/mL and the specific activity was calculated to be 0.29 U/mg. Buffer B (50 mM NaH2PO4 (pH 6.0), 100 mM NaCl) was used for all LmPTR1 measurements and the saturating concentrations amounted to 50 μM of folic acid and 200 μM of NADPH. The saturating conditions of the PTR1 enzymes were determined using the diagrams depicted in Figures S16 and S18 in the Supplementary Materials.
as §1, §2

LmDHFR = molecular target: T4, LmDHFR (Leishmania major, UniProt P07382); assay: Spectrophotometric enzyme inhibition assay, recombinant LmDHFR; assay type: biochemical
T4 construct: The DNA fragment encoding LmDHFR was amplified by Phusion DNA polymerase; His6 (N); made in house; host or cells: E. coli BL21(DE3), vector pET 11D::LmDHFRHis
T4 sequence (P07382 26-229 limits assumed): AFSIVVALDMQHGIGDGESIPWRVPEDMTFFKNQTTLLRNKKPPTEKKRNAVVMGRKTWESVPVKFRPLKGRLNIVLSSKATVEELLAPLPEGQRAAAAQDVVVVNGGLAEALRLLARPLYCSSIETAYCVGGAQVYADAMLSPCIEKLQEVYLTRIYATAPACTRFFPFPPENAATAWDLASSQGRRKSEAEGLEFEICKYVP
Protocol: as §3
The TbDHFR concentration was measured to be 0.04 mg/mL and a specific activity of 38.1 U/mg was calculated. The concentration of LmDHFR was 0.05 mg/mL with a specific activity of 56.2 U/mg. All measurements were carried out using the saturating concentrations for dihydrofolate (50 μM) and NADPH (150 μM) in Buffer C (50 mM Tris/HCl (pH 7.6), 250 mM NaCl, 10 mM BME). The saturating conditions for TbDHFR and LmDHFR were determined using the diagrams depicted in Figures S17 and S19 in the Supplementary Materials.
as §1, §2

TbDHFR = molecular target: T5, TbDHFR (Trypanosoma brucei brucei, UniProt Q27783); assay: Spectrophotometric enzyme inhibition assay, recombinant TbDHFR; assay type: biochemical
T5 construct: pET 11D::TbDHFRHis vector design for the recombinant overexpression of TbDHFR in E. coli; His; made in house; host or cells: E. coli BL21(DE3), vector pET 11D::TbDHFRHis
T5 sequence (Q27783 28-238 limits assumed): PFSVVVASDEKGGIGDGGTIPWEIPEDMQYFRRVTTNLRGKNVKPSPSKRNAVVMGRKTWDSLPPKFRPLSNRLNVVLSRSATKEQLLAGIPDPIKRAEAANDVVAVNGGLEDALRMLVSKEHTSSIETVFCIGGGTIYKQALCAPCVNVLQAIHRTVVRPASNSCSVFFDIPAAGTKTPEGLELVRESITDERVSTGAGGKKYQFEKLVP
Protocol: Based on the in vitro assays against TbPTR1 and LmPTR1 performed in the previous works of our group, as well as the in silico results obtained from the current study, a total of 47 natural products were tested against the target enzymes.
The saturating conditions for TbDHFR and LmDHFR were determined using the diagrams depicted in Figures S17 and S19 in the Supplementary Materials.
as §1, §2

LmPTR1 [2] = molecular target: T1, LmPTR1; assay: Spectrophotometric enzyme inhibition assay, recombinant LmPTR1; assay type: biochemical
Protocol: as §3, §4, §1, §2

- EC50 (LmPTR1 [2]; read-out: EC50 LmPTR1 (footnote a)): 35.1 µM
- IC50 (TbDHFR; read-out: IC50 TbDHFR): 2.9 µM
- IC50 (hDHFR): > 50 µM
- IC50 (TbPTR1; read-out: IC50 TbPTR1): 28.3 µM
- EC50 (LmDHFR; read-out: EC50 LmDHFR (footnote a)): 4.7 µM
SMILES: CCC(C)C(=O)c1c(O)c(C/C=C(\C)CCC=C(C)C)c(O)c2c([C@H](CC)OC(C)=O)cc(=O)oc12 (stereo partly shown) [Compound 20, surangin B]

- IC50 (LmPTR1 [2]; read-out: IC50 LmPTR1): > 50 µM
- IC50 (TbDHFR; read-out: IC50 TbDHFR): 2.1 µM
- IC50 (hDHFR): 19.8 µM
- inhibition at 50 µM (hDHFR): > 50%
- EC50 (TbPTR1): 36.8 µM
SMILES: COc1c(CC=C(C)C)c(O)c([C@H](CC(C)C)c2c(O)c(CC=C(C)C)c(O)c(C(C)=O)c2O)c(O)c1C(C)=O [Compound 21, acrovestone]

- IC50 (LmPTR1 [2]; read-out: IC50 LmPTR1): 30.2 µM
- IC50 (TbDHFR; read-out: IC50 TbDHFR): > 50 µM
- IC50 (hDHFR): > 50 µM
- EC50 (TbPTR1): 37.8 µM
- IC50 (LmDHFR; read-out: IC50 LmDHFR): > 50 µM
SMILES: COc1cc(C2OC(=O)C3C(c4ccc(O)c(OC)c4)OC(=O)C23)ccc1O (stereo not shown) [Compound 22]

The remaining lines, values behind:

SMILES: O=C(/C=C/c1ccc(O[C@@H]2O[C@H](CO)[C@@H](O)[C@H](O)[C@H]2O)cc1)c1ccc(O)cc1O [Compound 7, isoliquiritin]
- IC50 (LmPTR1 [1]): 84.5 µM
- IC50 (hDHFR): > 50 µM
- IC50 (TbPTR1): > 100 µM
- IC50 (LmDHFR): 46.2 µM

SMILES: O=c1[nH]c(=O)n([C@@H]2O[C@H](CO)[C@@H](O)[C@H]2O)c2nc(-c3ccc(Cl)cc3)cnc12 [Compound 18]
- IC50 (TbDHFR; read-out: IC50 TbDHFR): > 50 µM
- IC50 (TbPTR1; read-out: IC50 TbPTR1): 58.6 µM

SMILES: C=CC/C=C\C/C=C\CCCCCCCc1cccc(O)c1C(=O)O [Compound 12]
- IC50 (TbPTR1; read-out: IC50 TbPTR1): 21.7 µM

SMILES: CC(C)=CCc1c(O)cc2oc3cc(O)c(O)c(CC=C(C)C)c3c(=O)c2c1O [Compound 14, g-mangostin]
- IC50 (LmPTR1 [2]): 10 µM
- IC50 (TbDHFR): 0.2 µM
- IC50 (hDHFR): 2.7 µM
- inhibition at 50 µM (hDHFR): > 50%
- IC50 (TbPTR1): 71 µM
- IC50 (LmDHFR): 1.5 µM

Reference: paper PMC10673058, “In Silico and In Vitro Search for Dual Inhibitors of the Trypanosoma brucei and Leishmania major Pteridine Reductase 1 and Dihydrofolate Reductase” (Molecules, 2023)
